In patent US20160067211A1, “PHARMACEUTICAL COMPOSITION” (Eberhard Karls Universitaet Tuebingen Medizinische Fakultaet, priority 2013, published 2016):

Tests used:
SK-MEL-28 melanoma cells [1] = test: MUH proliferation assay, SK-MEL-28; assay type: cell-based, human; details: SK-MEL-28, addition of 5 μM IM-54 to 6-PN/8-PN treatment
Description: (§1) FIG. 5: real time cell monitoring of BLM and SK-MEL-28 melanoma cells treated with 6-PN and 8-PN. (A) BML and SK-MEL-28 cells were treated 24 hours after seeding with different concentrations of 6-PN and 8-PN (20 μM, 50 μM and 100 μM) over a 104 hour time period. The cellular impedance was measured over the entire observation time using the xCELLigence™ SP system and is depicted by the cell index (CI). All CI-values were normalized shortly before the treatment started. […] As a positive control, Triton X-100 0.1% was used to induce cell death. Shown are the mean±SD of three independent experiments, each performed in triplicates (B, C). […] Shown are the mean±SD; the experiments were performed in quadruplicates. (D) The MUH proliferation assay was repeated unter the same treatment conditions on primary human fibroblasts (FF868) and melanocytes (HEM1).
(§2) The cells were seeded in triplicates in 96-well plates at a density of 2,500 cells per well in 50 μl medium (5×10^4 cells per milliliter). […] Plates were incubated at 37° C. for 1 hour and measured in a Fluoroskan II (Lab Systems, Helsinki, Finland) with a […]. The intensity of fluorescence indicates the number of viable cells in the wells. […]

BLM melanoma cells [2] = test: MUH proliferation assay, BLM; assay type: cell-based, human; details: addition of 5 μM IM-54 to 6-PN/8-PN treatment
Description: as §1, §2

[3] = system: primary human fibroblasts (FF868); test: MUH proliferation assay, fibroblasts; assay type: cell-based; details: 6-PN, 8-PN 0.1 μM to 100 μM; TSA, SAHA 100 μM
Description: as §1
(§3) The cells were seeded in triplicates in 96-well plates at a density of 2,500 cells per well in 50 μl medium (5×10^4 cells per milliliter). After 24 hours, the medium was replaced by medium containing 6-PN, 8-PN (dissolved in DMSO), TSA (dissolved in EtOH) or SAHA (dissolved in DMSO) at the concentrations to be tested with or without the addition of the necrosis inhibitor IM-54 at 5 μM (Calbiochem, Darmstadt, Germany). Cells treated with culture medium without or with DMSO served as controls. The assay was started following an incubation of 24 hours. […] Plates were incubated at 37° C. for 1 hour and measured in a Fluoroskan II (Lab Systems, Helsinki, Finland) with a […]. The intensity of fluorescence indicates the number of viable cells in the wells.
(§4) Next it was asked whether the PNs also influence the proliferation of benign cells. To this end, human fibroblasts (FF) and foreskin melanocytes (HEM1) were treated with the same concentrations of 6-PN and 8-PN, and proliferation was assessed using the proliferation assay as described above.

[4] = system: foreskin melanocytes (HEM1); test: MUH proliferation assay, melanocytes; assay type: cell-based; details: 6-PN, 8-PN at higher concentrations (0.1 μM to 100 μM tested); TSA, SAHA 100 μM
Description: as §1, §3, §4

[5] = system: cleaved caspase-3 in SK-MEL-28 melanoma cells; test: Western blot for cleaved caspase-3; assay type: cell-based, human; details: SK-MEL-28, 100 μM
Description: Western blot analysis of SK-MEL-28 melanoma cells treated with 100 μM of 6-PN, 8-PN, SAHA or TSA. EtOH and DMSO were applied as controls.
The following antibodies were used: Anti-Vinculin and Anti-Actin (1:5000, Sigma-Aldrich), Anti-Acetyl-Histon H3 (1:5000, Millipore, Billerica, USA), Anti-Caspase-3 (1:1000), Anti-AKT, Anti-pAKT, Anti-ERK, Anti-pERK, […], Anti-p70S6 Kinase, and Anti-pS6 protein (1:1000), all from Cell Signaling, Frankfurt, Germany), Anti-LC3 (1:5000, Sigma-Aldrich).
To further analyze the type of cell death induced by 6-PN and 8-PN, western blot analyses of SK-MEL-28 melanoma cells were performed 1, 2, 4, 12 and 24 hours after the treatment with 100 μM 6-PN and 8-PN. […] Upon PN treatment an inconsistent expression of oncogenic AKT and phospho-AKT (pAKT) was detected. […] Thus, there was an obvious discrepancy between the expression of pAKT and pS6P. Therefore it was first also looked for the expression of P70S6 kinase and its phosphorylated form. […] Therefore it was next asked whether the S6P could be phosphorylated by a different mechanism. In this respect, activated ERK can phosphorylate the p90 ribosomal S6 kinase (pP90). pP90 also phosphorylates the S6P (in addition to the P70S6 kinase). Since the pP70S6 kinase was absent in the used cells (SK-MEL-28 and BLM), it was hypothesized that the phosphorylation of the S6P was conducted via the pERK/pP90 pathway, independent from the P70S6 signalling. This hypothesis was supported by the parallel down-regulation of the bands for pP90 (Thr359/Ser363) and pS6P 12 hours after the treatment with 6-PN, and the reappearance of both bands after 24 hours (FIG. 8). […] The western blot experiments were repeated with BLM cells under the same treatment conditions and yielded similar results (not shown).

BLM melanoma cells [6] = test: PI/Annexin V staining FACS, BLM; assay type: cell-based, human; details: 10 μM, 6 hours treatment
Description: (§5) (A) Cell cycle FACS analyses of PI stained BLM and SK-MEL-28 melanoma cells. 100 μM of 8-PN-induced a G2 arrest in both cells. (B) FACS analyses of BLM and SK-MEL-28 melanoma cells treated with 100 μM 6-PN or 8-PN and stained for annexin V/PI; staurosporin was used as control for apoptosis induction and DMSO as vehicle control. […] (C) BLM and SK-MEL-28 melanoma cells were treated with 100 μM of PNs; TSA, SAHA and EMSO were used as controls.
(§6) To further analyze the possibility of apoptosis induction, an extensive apoptosis assay was performed on SK-MEL-28 melanoma cells 4 hours after treatment with 100 μM 6-PN or 8-PN (FIG. 9). […] This was verified by FACS cell cycle analyses to screen for a possible increase of the sub-G1 fraction of cells (apoptotic cells) or for the induction of a G2 arrest (inhibition of proliferation). […] To further differentiate between the induction of apoptosis and/or necrosis an PI/Annexin V staining of SK-MEL-28 and BLM cells was performed 4 hours and 24 hours after the treatment with 6-PN or 8-PN; 10 μM staurosporin (6 hours treatment) was used as positive control for the induction of apoptosis; DMSO treatment was used as vehicle control. The cells were then analyzed by FACS.

SK-MEL-28 melanoma cells [7] = test: PI/Annexin V staining FACS, SK-MEL-28; assay type: cell-based, human; details: SK-MEL-28, 10 μM, 6 hours treatment
Description: as §5, §6

SMILES: CCCCCNC1=C(c2cn(C)c3ccccc23)C(=O)N(C)C1=O [IM-54]
- decrease of cell death rates at higher PN concentrations (SK-MEL-28 melanoma cells [1]): up to 35%
- decrease of cell death rates at higher PN concentrations (BLM melanoma cells [2]): up to 35%

SMILES: CC(/C=C/C(=O)NO)=C\[C@@H](C)C(=O)c1ccc(N(C)C)cc1 [TSA, trichostatin A]
- fibroblast proliferation [3]: no reduced proliferation
- melanocyte proliferation [4]: no reduced proliferation
- band for cleaved caspase-3 [5]: no additional band

SMILES: O=C(CCCCCCC(=O)Nc1ccccc1)NO [SAHA, suberoyl anilide hydroxamic acid]
- fibroblast proliferation [3]: no reduced proliferation
- melanocyte proliferation [4]: no reduced proliferation
- band for cleaved caspase-3 [5]: no additional band

SMILES: CN[C@@H]1C[C@H]2O[C@@](C)([C@@H]1OC)n1c3ccccc3c3c4c(c5c6ccccc6n2c5c31)C(=O)NC4 [staurosporin, reference compound]
- annexin V positive (apoptotic) cells (BLM melanoma cells [6]; DMSO control 4.1%): 17.4%
- PI positive (nectrotic) cells (BLM melanoma cells [6]; DMSO control 9.1%): 16.6%
- annexin V positive (apoptotic) cells (SK-MEL-28 melanoma cells [7]; DMSO control 2.5%): 13.9%
- PI positive (nectrotic) cells (SK-MEL-28 melanoma cells [7]; DMSO control 7.9%): 9.3%
